# Measured values taken from patent US20240384268A1, “Oligonucleotides” (Hudson Institute of Medical Research, priority 2021, published 2024).
# In the oligonucleotide strings, read from the 5' end, every base follows the letter of its sugar. An asterisk marks phosphorothioate; unmarked linkages are phosphodiester. Other units and linkages are bracketed, terminal groups are in braces. A string of capitals states the bases alone. d = 2'-deoxy (DNA); m = 2'-O-methyl
# Target: T1, human TLR9 (Homo sapiens, UniProt Q9NR96)
# T1 construct: HA; host or cells: 293XL-hTLR9-HA (HEK293)
# T1 sequence (Q9NR96 26-1032): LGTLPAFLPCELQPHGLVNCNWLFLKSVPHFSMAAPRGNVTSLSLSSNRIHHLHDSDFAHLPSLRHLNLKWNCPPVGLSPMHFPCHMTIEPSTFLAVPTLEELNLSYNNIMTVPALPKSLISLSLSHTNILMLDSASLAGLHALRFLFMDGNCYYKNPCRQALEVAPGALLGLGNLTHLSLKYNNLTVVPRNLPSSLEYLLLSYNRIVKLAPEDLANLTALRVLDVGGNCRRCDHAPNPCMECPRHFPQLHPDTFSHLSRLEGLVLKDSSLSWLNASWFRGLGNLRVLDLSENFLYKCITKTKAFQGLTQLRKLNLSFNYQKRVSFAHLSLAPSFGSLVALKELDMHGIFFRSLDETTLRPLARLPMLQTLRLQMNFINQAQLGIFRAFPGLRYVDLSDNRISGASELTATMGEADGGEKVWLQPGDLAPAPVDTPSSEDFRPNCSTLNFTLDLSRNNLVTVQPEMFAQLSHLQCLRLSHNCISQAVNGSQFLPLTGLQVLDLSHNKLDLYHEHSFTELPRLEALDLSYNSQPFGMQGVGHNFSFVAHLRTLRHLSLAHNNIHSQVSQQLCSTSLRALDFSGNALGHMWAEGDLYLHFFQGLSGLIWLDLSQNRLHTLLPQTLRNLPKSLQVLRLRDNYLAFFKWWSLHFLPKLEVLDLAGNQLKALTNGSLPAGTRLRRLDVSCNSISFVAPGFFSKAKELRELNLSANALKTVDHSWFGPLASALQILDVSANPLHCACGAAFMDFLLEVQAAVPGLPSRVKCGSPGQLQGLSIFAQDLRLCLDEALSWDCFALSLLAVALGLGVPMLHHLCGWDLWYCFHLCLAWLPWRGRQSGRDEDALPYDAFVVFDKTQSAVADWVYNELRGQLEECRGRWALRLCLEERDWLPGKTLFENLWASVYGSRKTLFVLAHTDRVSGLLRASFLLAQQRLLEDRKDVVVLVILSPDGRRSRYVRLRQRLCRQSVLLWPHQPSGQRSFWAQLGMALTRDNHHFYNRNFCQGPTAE
# Experiment: HEK-TLR9 NF-κB-luciferase reporter, ODN2006 stimulation
# Format: cell-based
# Conditions: 3mer 2'OMe ASO at 2 uM; HEK-TLR9; value relative to Ligand only = 1.000, NT = 0.000
row,Substance,TLR9 2 uM
1,UUC (mU*mU*mC),0.770
2,"UUG (listed as RNA, chemistry not fully specified)",0.816
3,UUU (mU*mU*mU),0.936
4,"dA*dA*dA (DNA AAA; listed as DNA, chemistry not fully specified)",0.845
5,"dA*dA*dC (DNA AAC; listed as DNA, chemistry not fully specified)",0.931
6,"dA*dA*dG (DNA AAG; listed as DNA, chemistry not fully specified)",0.870
7,"dA*dC*dA (DNA ACA; listed as RNA, chemistry not fully specified)",1.042
8,"dA*dG*dA (DNA AGA; listed as DNA, chemistry not fully specified)",0.848
9,"dA*dG*dC (DNA AGC; listed as DNA, chemistry not fully specified)",0.749
10,"dC*dA*dA (CAA; listed as DNA, chemistry not fully specified)",0.917
11,"dC*dA*dC (CAC; listed as RNA, chemistry not fully specified)",0.830
12,"dC*dC*dA (CCA; listed as DNA, chemistry not fully specified)",1.014
13,"dC*dC*dC (CCC; listed as DNA, chemistry not fully specified)",1.069
14,"dC*dC*dG (CCG; listed as DNA, chemistry not fully specified)",0.936
15,"dC*dG*dA (CGA; listed as DNA, chemistry not fully specified)",1.061
16,dG*dC*dC [GCC],1.305
17,dG*dC*dG [GCG],1.299
18,"mAmUmC (mA*mU*mC) [AUC, 3-mer 2′OMe PS oligo]",0.884
19,mCmUmU (antisense mC*mU*mU) [660-3],1.108
20,"mGmAmU (mG*mA*mU) [GAU, 3-mer 2′OMe PS oligo]",0.700
21,"mGmUmA (GUA; all 2'-O-methyl, backbone not given here; further chemistry not fully specified) [shortMut1-3b]",1.042
22,"mGmUmC (mG*mU*mC) [GUC, 3-mer 2′OMe PS oligo]",0.856
23,"mGmUmG (mG*mU*mG) [GUG, 3-mer 2′OMe PS oligo]",1.374
24,"mGmUmU (mG*mU*mU) [GUU, 3-mer 2′OMe PS oligo]",1.159
25,"mUmCmA (mU*mC*mA) [UCA, 3-mer 2′OMe PS oligo]",0.872
26,mUmCmG (antisense mU*mC*mG) [660-3b],0.514
27,"mUmGmA (mU*mG*mA) [UGA, 3-mer 2′OMe PS oligo]",1.034
28,"mUmGmG (mU*mG*mG) [UGG, 3-mer 2′OMe PS oligo]",1.137
